Tests used:
Net charge at neutral pH = assay type: physicochemical
αSyn = αSyn (Homo sapiens, UniProt P37840); conditions: agitation conditions; ref [62]; cited from earlier work
αSyn(61–140) = assay: ThT aggregation assay of αSyn(61–140) under quiescent conditions; assay type: biochemical; conditions: concentrations up to 50 µM
Description: Figure 5 Modulation of aggregation of truncated αSyn variants by SMAhp (left) and LENhp (right) in ThT assay under quiescent conditions. Buffer, 30 mM Tris-HCl, pH 7.4, with indicated salt concentration. ThT time course and AFM images of (A,C) 25 µM αSyn(1–95) or (B,D) 25 µM αSyn(61–140) in the absence (gray) and presence of SMAhp (A,B) or LENhp (C,D). Frames around the AFM images correspond to the frames in the kinetics diagrams for indication of the sample; the same color coding for SMAhp and LENhp concentrations as in the kinetic diagrams was used for the AFM image frames.
αSyn(1–95) and αSyn(61–140) were expressed from codon-optimized gene sequences in the pT7–7 vector in Escherichia coli BL21DE3, without N-terminal acetylation. Expression and purification were performed as for full-length αSyn, with the difference that, for αSyn(1–95), the anion exchange chromatography step was replaced by cation exchange chromatography using a 5 mL HiTrap SP FF column (Cytiva, Marlborough, MA, USA) and 10 mM sodium acetate buffer, pH 5, with elution in a NaCl gradient from 0 to 500 mM.
Aggregation kinetics were monitored in Greiner 96-well half-area, clear bottom, low-binding plates via ThT fluorescence in a BMG CLARIOstar plate reader. […] Plates were covered with sealing tape, placed in the plate reader, heated to 37 °C, and ThT fluorescence was read using bottom optics.

β-wrapin AS10 = conditions: cited from earlier work

net charge at neutral pH (Net charge at neutral pH) | Molecule | effect on αSyn fibril formation under agitation (αSyn) | effect of spermine on ThT fluorescence of αSyn(61–140) (αSyn(61–140)) | NMR pattern with AS10 (glycine region and downfield amide resonances) (β-wrapin AS10; 1H-15N HSQC NMR of 15N-AS10, ref [57]) | Kd (β-wrapin AS10; read-out: KD for AS10, ref [57]) [nM] | affinity for AS10 (β-wrapin AS10; ref [56,57,58])
+4 | NCCCNCCCCNCCCN [spermine] | promote αSyn fibril formation | did not lead to any increase in ThT fluorescence | – | – | –
– | IAPP: islet amyloid polypeptide, disease-related amyloid protein (KCNTATCATQRLANFLVHSSNNFGAILSSTNVGSNTY; Islet amyloid polypeptide; UniProt P10997 34-70, looked up) | – | – | The same pattern has been observed before | 910 | sub-micromolar affinity

Source: paper PMC10671648, “Nucleation of α-Synuclein Amyloid Fibrils Induced by Cross-Interaction with β-Hairpin Peptides Derived from Immunoglobulin Light Chains” (International Journal of Molecular Sciences, 2023)
